This note sets out measurements from patent publication US20230390287A1, “MODULATORS OF PD-L1/PD-1 INTERACTION AND USES THEREOF” (Ramot at Tel-Aviv University Ltd., priority 2021, published 2023).

The target of one test is recombinant human PD-L1 (Homo sapiens (Human), UniProt Q9NZQ7). As to the kind of experiment: Differential scanning fluorimetry (DSF) thermal denaturation. The format is binding. The following applies: 100 μM compound, 1% DMSO. How it is done:
DSF was performed in a C1000 Touch thermal cycler equipped with a CFX96 optical reaction module (Bio Rad). For all fluorescence measurements, samples contained recombinant human PD-L1 (ThermoFisher) at 500 μg/ml in phosphate buffered saline (PBS), pH 7.4, 5% (m/v) Mannitol, 5% (m/v) Trehalose, 0.02% (v/v) Tween® 80, 2.5-fold SYPRO® Orange, 1% (v/v) DMSO (Sigma-Aldrich) and 100 μM of each compound. The PCR plate was sealed with Optical-Quality Sealing Tape (Bio-Rad) and centrifuged at 300 g for 5 minutes. The DSF assay was carried out by increasing the temperature from 20 to 90° C., with a 1 second hold time every 0.2° C. and fluorescence acquisition using the FRET channel, after an initial incubation step of 10 minutes at 20° C. Control experiments in the absence of DMSO and/or compounds were routinely performed in each microplate.
Data were processed using CFX Manager Software V3.0 (Bio-Rad) and the GraphPad Prism 7. Temperature scan curves were fitted to a dose-response sigmoid function (Boltzmann equation) and the melting temperature (Tm values) were obtained from the midpoint of the transition. Normalization of the RFU was also performed to prevent distraction due to different maximum and minimum values upon compounds treatment. The RFU values from different data sets were converted to a common scale 0-1, where 0 represents the fluorescence of the native protein and 1 the fluorescence of the denatured protein. To monitor the binding properties towards each compound, DSF assays were run in the absence and presence of 100 μM compounds using 1% (v/v) DMSO as vehicle control.
To test this hypothesis, the melting temperature (Tm) of the PD-L1 was determined in thermal denaturation assays by differential scanning fluorimetry (DSF) and checked for a shift in the proteins' Tm (ΔTm) in the presence of the PD-L1 inhibitor candidates. The extent of temperature shift is proportional to the compounds' stabilizing effect and thereby used to infer inhibitors' affinity.

Test [1] relates to PD-1/PD-L1 interaction on MDA-MB-231 cells. As to the kind of experiment: Cell-based PD-1/PD-L1 inhibition (accessible PD-L1 by flow cytometry), MDA-MB-231. More on the design: species or system human. Conditions: Homo sapiens, 72 hours. The procedure:
PD-1/PD-L1 Inhibition on Human Melanoma and Breast Cancer Cell Lines:
Cells (0.1×10^6 cells) were tested for PD-1/PD-L1 inhibition by co-incubation of hit compounds, DMSO (background), BMS-202 (Selleckchem) and anti-human PD-L1 (BioxCell, Clone 29E.2A3) (positive controls) for 72 hours in 2 ml DMEM medium. Non-confluent cell cultures were scraped into single-cell suspension, washed with PBS, and counted. Cells were subsequently stained with PD-1 fluorescent proxy for 30 minutes at 4° C., washed twice and resuspended in FACS buffer. Cells were analyzed using BD LSRFortessa (BD Biosciences) and data analyzed with FlowJo software for Mac (FlowJo, LLC 2013-2016). Mean fluorescence intensity (MFI) was derived from each sample. The PD-1/PD-L1 inhibition in cells was measured by a decrease in MFI relative to background.
The selected cell lines were incubated with the selected compounds to assess compound-binding affinities, and consequently PD-1/PD-L1 inhibition. The levels of remaining accessible PD-L1 in these cells were evaluated by FACS analysis using a fluorescence PD-1 proxy. To understand compound activity, different incubation times (24, 48 and 72 hours) were evaluated on MDA-MB-231 breast cancer cell line.
The remaining accessible PD-L1 was determined by flow cytometry.
(Flow cytometry measures light scatter and fluorescence of single cells or particles in a stream.)

The test system of test [2] is MC38 expressing human PD-L1 (MC38-hPD-L1). As to the kind of experiment: MC38-hPD-L1 tumor model in humanized PD-1 mice. The format is in vivo. How it is done:
Male C57BL/6N-Pdcd1tm1^(huPDCD1-ICP11)Geno humanized for PD-1 (6 weeks old) were purchased from genOway and housed in an animal facility.
Male C57BL/6N humanized PD-1 mice were implanted with 1×10^6 MC38 cells expressing humanized PD-L1 (MC38-hPD-L1) subcutaneously in the right flank. Twelve days later, when tumor volumes reached approx. 60 mm^3 (40-110 mm^3) as measured by digital caliper, animals were randomized into the three treatment groups (n=6 per group). Compound 69 was administered via intraperitoneal (i.p.) injection at 10 mg/kg for 10 daily doses between study days 12 and 22. Similarly, vehicle control (5% (v/v) DMSO, 30% (v/v) polyethylene glycol (PEG) 300, 5% (v/v) Tween® 80, and double distilled (dd) H2O) was administered. The αPD-L1 antibody Atezolizumab was administered via i.p. injection at 10 mg/kg thrice weekly between study days 12 and 22. The tumor size and body weight were measured every 3 days. The tumor volume was determined by X^2Y0.5 (X, small diameter; Y, large diameter).
At day 30, the mice were euthanized, and MC38 tumors and spleens were collected. Tumor and spleen single-cell suspensions were obtained by mechanical disruption of the tissues. […] The obtained single-cell suspensions were then stained with fluorochrome-labelled antibodies and analyzed using a Cytek Aurora (Cytek) and FlowJo software (TreeStar). […]

“Also recorded” adds a separate entry of the source.

Sequence of recombinant human PD-L1 (Q9NZQ7 19-238): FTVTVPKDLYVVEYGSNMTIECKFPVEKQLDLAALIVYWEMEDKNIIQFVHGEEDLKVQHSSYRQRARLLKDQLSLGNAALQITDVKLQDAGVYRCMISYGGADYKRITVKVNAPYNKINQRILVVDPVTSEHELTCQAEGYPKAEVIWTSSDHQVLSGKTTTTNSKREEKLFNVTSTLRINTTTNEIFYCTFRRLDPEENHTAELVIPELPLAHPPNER

Consider `CCCCCN(CCCCC)C(C)C(=O)c1cc(C)c2ccc3cc(C(C)C)ccc3c2c1.Cl` (stereo not shown) [Compound 69], for which the “thermal shift / stabilization of PD-L1” value on recombinant human PD-L1 is recorded as “stabilization of PD-L1”. Moreover, the IC50 (in general, the midpoint of a concentration-inhibition curve) in test [1] came to 1000 nM. For the same compound, the “tumor volume reduction relative to vehicle control” value in test [2] (10 mg/kg i.p., 10 daily doses) was found to be 93.6%. Also, in test [2] (tumors isolated at day 30, flow cytometry), the “cytotoxic CD8+ tumor-infiltrating lymphocytes” value is given as “significant increase; also recorded: significantly outperformed the monoclonal antibody”.
